In brackets after ≈: the same amount, converted by molar mass. Several values for one entry are separate records, joined by “and”; a condition that tells them apart may be missing. Equal entries are not always repeated.
How the values were obtained:
CCD 841 CoTr cells [1] = assay: MTT assay, metabolic activity of CCD 841 CoTr cells; type: cell-based, human; settings: for IC50: Homo sapiens, CCD-841, 24 h, read-out: IC50 Values (MTT method)
Protocol: (§1) The HT29 cell line (ATCC no. HTB-38) (human colon adenocarcinoma) was used in the present study. Cells were cultivated in RPMI 1640 culture medium with 10% fetal calf serum (FCS) (GibcoTM, Paisley, UK), supplemented with antibiotics (100 U/mL penicillin and 100 μg/mL streptomycin) (Sigma, St. Louis, MO, USA). The cell culture was performed in standard conditions, i.e., at 37 °C in a humidified atmosphere with 5% CO2. The CCD 841 CoTr cell line (ATCC no. CRL-1807) (human normal colon epithelium) was cultivated in RPMI 1640 +DMEM (1:1) medium (Sigma, St. Louis, MO, USA) with 10% FCS and the addition of antibiotics. The culture was carried out at 34 °C in a 5% CO2/95% air atmosphere.
(§2) After seeding (1 × 10^5 cells/mL) in a 96-well plate, the cells were incubated for 24 h. Thereafter, the tested compounds (100 μL) at a concentration range of 0–200 μg/mL in the culture medium were added to the wells (100 μL). The incubation lasted for 24 h. After that time, an MTT solution (5 mg/mL, 25 μL/well) was added to each well. The incubation was continued for another 3 h. After the incubation, 10% sodium dodecyl sulfate (SDS) in 0.01 M HCl (100 μL) was added in order to dissolve the purple formazan crystals. Solubilization was carried out overnight. Finally, spectrophotometric measurement was performed at 570 nm using an EL800 Universal Microplate Reader (BioTek Instruments, Winooski, VT, USA).

HT29 cells [2] = assay: Flow cytometry (PI) cell cycle analysis of HT29 cells; type: cell-based, human; settings: HT29, 25 μg/mL, 24 h
Protocol: (§3) In the flow cytometric study, we assessed the impact of the cannabinoids at a concentration of 25 μg/mL on the distribution of cell cycle phases in the normal and cancer cells after 24 h incubation. Both adhered, and non-adsorbed (floating) cells were used to perform the analyses. They were collected after 24 h of incubation with the tested cannabinoids and centrifuged (3000 rpm/5 min.). Next, the cell pellet was rinsed and suspended in PBS w/o Ca^2+ and Mg^2+ ions and centrifuged again (3000 rpm/5 min.). The cell pellet was suspended and fixed in 70% ethanol (1 mL). Untreated cells served as a control. The cells were stored at −20 °C for 1 week. After that time, in accordance with the manufacturer protocol, the cells were subjected to the PI staining procedure (PI/RNase Staining Buffer, BD PharmingenTM, BD Biosciences, San Jose, CA, USA). Briefly, 1 mL of PBS w/o Ca^2+ and Mg^2+ ions was added to 1 mL of ethanol and incubated with gentle stirring for 5 min. at room temperature. Next, the cells were centrifuged (3000 rpm/5 min.) and suspended in PBS w/o Ca^2+ and Mg^2+ ions with gentle stirring for 5 min. at room temperature. The cells were centrifuged once again (3000 rpm/5 min.) and the cell pellet was suspended in 500 μL of PI/RNase Staining Buffer. The incubation was carried out for 15 min. at room temperature. Finally, the intensity of the PI fluorescence was measured using FACS Calibur (BD Pharmingen^TM). The obtained data were analyzed using Cell Quest Pro Version 6.0. for the Macintosh operating system (BD Pharmingen^TM). The percentage of cells in the appropriate phases of the cycle was calculated based on all analyzed gated cells. A total of 10,000 events were measured per sample.

CCD 841 CoTr cells [3] = assay: Neutral Red (NR) uptake assay, viability of CCD 841 CoTr cells; type: cell-based; settings: Homo sapiens; CCD 841 CoTr colon normal cells, 24 h incubation
Protocol: as §1
(§4) After seeding (1 × 10^5 cells/mL) in a 96-well plate, the cells were incubated for 24 h. Thereafter, the tested compounds (100 μL) at a concentration range of 0–200 μg/mL in the culture medium were added to the wells (100 μL). The incubation lasted for 24 h. After that time, the culture medium was removed and a 0.4% Neutral Red solution in the culture medium was added to each well. The incubation was continued for another 3 h. After the incubation, the medium with the NR dye was discarded, and 4% paraformaldehyde in 1% CaCl2 was added for cell fixation (200 μL) and incubated for 3 min. Intracellular dye deposits were solubilized using 1% […] in a 50% ethanol solution (100 μL). The plates were then gently shaken (20 min.) at room temperature to dissolve and release the dye from the cells. Finally, spectrophotometric measurement was performed at 540 nm using an EL800 Universal Microplate Reader (BioTek Instruments, Winooski, VT, USA).

CCD 841 CoTr cells [4] = assay: Flow cytometry (PI) cell cycle analysis of CCD 841 CoTr cells; type: cell-based, human; settings: 25 μg/mL, 24 h
Protocol: as §3

HT29 cells [5] = assay: MTT assay, metabolic activity of HT29 cells; type: cell-based; settings: Homo sapiens, HT-29; HT29 colon tumor cells, 24 h incubation; read-out: IC50 Values (MTT method)
Protocol: as §1, §2

[6] = DPPH free radical scavenging test
Protocol: The DPPH biochemical test is used to determine the antioxidant potential of tested compounds. This method is based on the ability of compounds to reduce the stable dark purple 2,2-diphenyl-1-picrylhydrazyl radical (DPPH) to yellow diphenyl-picrylhydrazine. The following concentrations of the tested cannabinoids were prepared: 25, 100, and 200 μg/mL in pure ethanol. Next, the DPPH solution (0.2 mg/mL in ethanol) was prepared. As a quantitative standard, Trolox in increasing concentrations (1–50 μg/mL) was prepared in ethanol. The procedure was carried out as follows: 100 µL of the specified concentrations of the tested cannabinoids or standard points were added to the wells of a 96-well plate in eight replicates. Next, 100 μL of a DPPH solution was added to 100 μL of each sample or standard in a 96-well plate. Subsequently, 20 min. incubation at room temperature was carried out, and spectrophotometric reading was performed at 515 nm using an EL800 Universal Microplate Reader (BioTek Instruments, Winooski, VT, USA). Decreasing absorbance meant increasing antioxidant activity of the preparations. The final value of the free radical scavenging activity of the cannabinoids was calculated based on the standard curve and the following formula:DPPH scavenging effect (%) = [(Xcontrol − Xcompound/Xcontrol) × 100]
Xcontrol is the absorbance of the control, and Xcompound is the absorbance in the presence of cannabinoids

HT29 cells [7] = assay: Neutral Red (NR) uptake assay, viability of HT29 cells; type: cell-based; settings: Homo sapiens, HT-29; HT29 colon tumor cells, 24 h incubation
Protocol: as §1, §4

[8] = CCD 841 CoTr colon normal cells, 24 h incubation
[9] = cannabinoid concentration 25 μg/mL
[10] = cannabinoid concentration 100 μg/mL
[11] = cannabinoid concentration 200 μg/mL

Row | SMILES | IC50 (CCD 841 CoTr cells [1]; [8]) [µg/mL] | Increase in the number of cells in the sub-G1 phase compared to the control (HT29 cells [2]) [%] | Percentage of cells in G1 phase (HT29 cells [2]) [%] | Percentage of cells in G2 phase (HT29 cells [2]) [%] | Percentage of cells in S phase (HT29 cells [2]) [%] | Percentage of cells in sub-G1 phase (HT29 cells [2]) [%] | IC50 (CCD 841 CoTr cells [3]) [µg/mL] | Effect on cell cycle transitions (in words) (CCD 841 CoTr cells [4]) | Increase in the number of cells in the sub-G1 phase compared to the control (CCD 841 CoTr cells [4]) [%] | Percentage of cells in G1 phase (CCD 841 CoTr cells [4]) [%] | Percentage of cells in G2 phase (CCD 841 CoTr cells [4]) [%] | Percentage of cells in S phase (CCD 841 CoTr cells [4]) [%] | Percentage of cells in sub-G1 phase (CCD 841 CoTr cells [4]) [%] | IC50 (HT29 cells [5]) [µg/mL] | Reduction Value Corresponding to the Trolox Concentration (DPPH) [6, 9] | Reduction Value Corresponding to the Trolox Concentration (DPPH) [6, 10] [µg/mL] | Reduction Value Corresponding to the Trolox Concentration (DPPH) [6, 11] | IC50 (HT29 cells [7]) [µg/mL] | further results
1 | CCCCCc1cc2c3c(c1)OC(C)(C)C1CCC(C)(CC31)O2 (centres unmarked) [CBT, cannabicitran] | 55.5 (≈ 177 µM) | 17.93 | 41.86 ± 0.64 | 17.90 ± 0.81 | 18.64 ± 0.81 | 19.26 ± 0.67 | 44.5 (≈ 141 µM) | caused the accumulation of cells in the S phase | 6.71 | 28.81 ± 0.86 | 16.54 ± 0.72 | 22.23 ± 0.15 | 28.84 ± 0.66 | 69.1 (≈ 220 µM) | 0.280 µg/mL and 0.280 ± 0.190 µg/mL | 0.487 ± 0.104 | 0.593 µg/mL and 0.593 ± 0.278 µg/mL | 53.9 (≈ 171 µM) | Effect on cell cycle transitions (in words) (HT29 cells [2]): limited the transition of cells from the S phase to the G2 phase
2 | CCCCCc1cc(O)c2c(c1)OC(C)(CCC=C(C)C)C=C2 (centres unmarked) [CBC, cannabichromene] | 75.2 (≈ 239 µM) | 1.19 | 50.90 ± 0.73 | 26.23 ± 0.39 | 16.71 ± 0.37 | 2.52 ± 0.10 | 151 (≈ 480 µM) | limited the transition of cells from the S to G2 phase |  | 32.31 ± 0.62 | 22.78 ± 0.86 | 23.38 ± 0.79 | 15.17 ± 0.79 | 176 (≈ 560 µM) | 0 µg/mL | 0 | 0.487 ± 0.341 µg/mL | 60.6 (≈ 193 µM) | IC50 Values (MTT method) (CCD 841 CoTr cells [1]; [8]): 75.29 µg/mL (≈ 239 µM); Stimulation of cell metabolism compared to the control (MTT) (CCD 841 CoTr cells [1]; CCD 841 CoTr, lowest concentration, 24 h): over 4%; Reduction in the number of cells in the G2 phase compared to the control (HT29 cells [2]): 3.24%; Reduction in the number of cells in the sub-G1 phase compared to the control (CCD 841 CoTr cells [4]): 6.96%; Activity in reducing the free oxygen radical DPPH (in words) ([6]; lower concentrations (<100 μg/mL)): did not express any activity
3 | CCCCCc1cc(O)cc(O)c1C/C=C(\C)CCC=C(C)C [abn-CBG, abnormal cannabigerol] | 15.3 (≈ 48.5 µM) | 80.59 | 7.97 ± 0.35 | 3.62 ± 0.54 | 5.09 ± 0.50 | 81.92 ± 1.80 | 14.1 (≈ 44.6 µM) |  | 53.97 | 11.63 ± 0.83 | 3.46 ± 0.79 | 8.24 ± 0.56 | 76.10 ± 2.21 | 19.6 (≈ 62 µM) | 0.074 ± 0.056 µg/mL | 0.216 ± 0.133 | 0.264 ± 0.198 µg/mL | 13.7 (≈ 43.2 µM) | Reduction of the metabolism of normal cells (MTT) (CCD 841 CoTr cells [1]; CCD 841 CoTr, 25 μg/mL, 24 h): over 81%

Reference: publication PMC11475369, “Exploring the Potential of Synthetic Cannabinoids: Modulation of Biological Activity of Normal and Cancerous Human Colon Epithelial Cells” (Cells, 2024)
